Laboratory results from PubChem BioAssay AID248 (DTP/NCI, 2004).
“And” between values parts separate entries of the source, which are not always exact repeats. Identical values can stand only once. Toxic doses and inconclusive results are not listed. Rule as the data show it: active = T/C of 150% or more; inactive = T/C below 125%. Numbered stars: 1 amine (or outer) side, 2 acyl side, 3 side chain; on linkers, the order of the positions; unused ones are H or OH. Bridge positions count the residues as written; N and C are the ends. Square brackets hold non-standard residues; d marks the D form. Peptide text beside a SMILES is read from it. I, II: the chains in the order shown. Actinocin(9to1) = Cc1c2oc3c(C)ccc(C(=O)[*:1])c3nc-2c(C(=O)[*:2])c(N)c1=O; aThr = C[C@H](O)[C@H](N)C(=O)O; NMeV = CN[C@H](C(=O)O)C(C)C; Sar = CNCC(=O)O

Tested on: L1210 leukemia ip in BDF1 mice, survival T/C
Assay: NCI In Vivo Anticancer Drug Screen. Data for tumor model L1210 Leukemia (intraperitoneal) in B6D2F1 (BDF1) mice
Conditions: higher = longer survival
Summary of the method: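 Each compound was tested against a transplantable tumor grown in mice. The endpoint was survival, with treated animals benchmarked against vehicle controls as a simple ratio.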

Measured: T/C

Cc1c2oc3c(C)ccc(C(=O)N[C@@H]4C(=O)N[C@H](C(C)C)C(=O)N5CCC[C@H]5C(=O)N(C)CC(=O)N(C)[C@@H](C(C)C)C(=O)O[C@H]4C)c3nc-2c(C(=O)N[C@@H]2C(=O)N[C@H](C(C)C)C(=O)N3CCC[C@H]3C(=O)N(C)CC(=O)N(C)[C@@H](C(C)C)C(=O)O[C@H]2C)c(N)c1=O (I: [aThr][dV]P[Sar][NMeV] / II: [aThr][dV]P[Sar][NMeV]; ester I:1-I:C, II:1-II:C; linker I:N-II:N via Actinocin(9to1))
inactive: endpoint: mean survival time, dose: 0.02 mg/kg/injection, schedule: Q04DX003 (ip), vehicle: water 102 % of control and 105 % of control | endpoint: mean survival time, dose: 0.03 mg/kg/injection, schedule: Q01DX009 (ip), vehicle: saline 111 % of control | endpoint: mean survival time, dose: 0.03 mg/kg/injection, schedule: Q04DX003 (ip), vehicle: water 105 % of control and 110 % of control | endpoint: mean survival time, dose: 0.05 mg/kg/injection, schedule: Q01DX009 (ip), vehicle: saline 111 % of control | endpoint: mean survival time, dose: 0.05 mg/kg/injection, schedule: Q04DX003 (ip), vehicle: other 103 % of control | endpoint: mean survival time, dose: 0.1 mg/kg/injection, schedule: Q01DX009 (ip), vehicle: saline + alcohol 103 % of control | endpoint: mean survival time, dose: 0.11 mg/kg/injection, schedule: Q01DX001 (ip), vehicle: saline 108 % of control | endpoint: mean survival time, dose: 0.12 mg/kg/injection, schedule: Q01DX Z (ip), vehicle: carboxymethylcellulose (CMC) 102 % of control | endpoint: mean survival time, dose: 0.13 mg/kg/injection, schedule: Q01DX009 (ip), vehicle: saline 103 % of control | endpoint: mean survival time, dose: 0.15 mg/kg/injection, schedule: Q02DX010 (ip), vehicle: carboxymethylcellulose (CMC) 104 % of control | endpoint: mean survival time, dose: 0.16 mg/kg/injection, schedule: Q01DX Z (ip), vehicle: carboxymethylcellulose (CMC) 94 % of control | endpoint: mean survival time, dose: 0.16 mg/kg/injection, schedule: Q## X032 (ip), vehicle: saline 107 % of control | endpoint: mean survival time, dose: 0.2 mg/kg/injection, schedule: Q01DX009 (ip), vehicle: saline 109 % of control | endpoint: mean survival time, dose: 0.22 mg/kg/injection, schedule: Q02DX010 (ip), vehicle: other 100 % of control | endpoint: mean survival time, dose: 0.23 mg/kg/injection, schedule: Q02DX010 (ip), vehicle: carboxymethylcellulose (CMC) 92 % of control | endpoint: mean survival time, dose: 0.24 mg/kg/injection, schedule: Q## X032 (ip), vehicle: saline 109 % of control | endpoint: mean survival time, dose: 0.3 mg/kg/injection, schedule: Q## X032 (ip), vehicle: saline 110 % of control | endpoint: mean survival time, dose: 1.0 mg/kg/injection, schedule: Q## X004 (ip), vehicle: saline 101 % of control | endpoint: mean survival time, dose: 0.7 micrograms/kg/injection, schedule: Q01DX009 (ip), vehicle: saline 100 % of control and 104 % of control | endpoint: mean survival time, dose: 0.8 micrograms/kg/injection, schedule: Q01DX Z (ip), vehicle: saline 104 % of control | endpoint: mean survival time, dose: 1.5 micrograms/kg/injection, schedule: Q01DX009 (ip), vehicle: saline 97 % of control and 104 % of control | endpoint: mean survival time, dose: 3.0 micrograms/kg/injection, schedule: Q01DX009 (ip), vehicle: saline 102 % of control and 104 % of control | endpoint: mean survival time, dose: 3.1 micrograms/kg/injection, schedule: Q01DX001 (ip), vehicle: saline 100 % of control | endpoint: mean survival time, dose: 3.2 micrograms/kg/injection, schedule: Q01DX Z (ip), vehicle: saline 107 % of control | endpoint: mean survival time, dose: 3.5 micrograms/kg/injection, schedule: Q01DX009 (ip), vehicle: saline 97 % of control | endpoint: mean survival time, dose: 3.5 micrograms/kg/injection, schedule: Q01DX Z (ip), vehicle: carboxymethylcellulose (CMC) 109 % of control | endpoint: mean survival time, dose: 4.0 micrograms/kg/injection, schedule: Q01DX009 (ip), vehicle: water 103 % of control and 106 % of control | endpoint: mean survival time, dose: 5.4 micrograms/kg/injection, schedule: Q01DX Z (ip), vehicle: carboxymethylcellulose (CMC) 111 % of control | endpoint: mean survival time, dose: 6.3 micrograms/kg/injection, schedule: Q01DX001 (ip), vehicle: saline 107 % of control | endpoint: mean survival time, dose: 12.0 micrograms/kg/injection, schedule: Q01DX006 (iv), vehicle: other 103 % of control | endpoint: mean survival time, dose: 12.0 micrograms/kg/injection, schedule: Q01DX Z (im), vehicle: other 103 % of control | endpoint: mean survival time, dose: 12.0 micrograms/kg/injection, schedule: Q01DX Z (sc), vehicle: other 105 % of control | endpoint: mean survival time, dose: 12.5 micrograms/kg/injection, schedule: Q01DX001 (ip), vehicle: saline 101 % of control | endpoint: mean survival time, dose: 12.5 micrograms/kg/injection, schedule: Q01DX009 (ip), vehicle: water 103 % of control | endpoint: mean survival time, dose: 17.0 micrograms/kg/injection, schedule: Q04DX002 (ip), vehicle: saline 97 % of control and 100 % of control | endpoint: mean survival time, dose: 20.0 micrograms/kg/injection, schedule: Q01DX015 (ip), vehicle: saline 108 % of control | endpoint: mean survival time, dose: 25.0 micrograms/kg/injection, schedule: Q01DX001 (ip), vehicle: saline 111 % of control | endpoint: mean survival time, dose: 25.0 micrograms/kg/injection, schedule: Q01DX009 (ip), vehicle: water 106 % of control | endpoint: mean survival time, dose: 25.0 micrograms/kg/injection, schedule: Q01DX Z (sc), vehicle: other 103 % of control | endpoint: mean survival time, dose: 35.0 micrograms/kg/injection, schedule: Q04DX002 (ip), vehicle: saline 103 % of control and 106 % of control | endpoint: mean survival time, dose: 40.0 micrograms/kg/injection, schedule: Q01DX Z (ip), vehicle: carboxymethylcellulose (CMC) 110 % of control | endpoint: mean survival time, dose: 50.0 micrograms/kg/injection, schedule: Q01DX001 (ip), vehicle: saline 109 % of control | endpoint: mean survival time, dose: 50.0 micrograms/kg/injection, schedule: Q01DX009 (ip), vehicle: water 105 % of control | endpoint: mean survival time, dose: 50.0 micrograms/kg/injection, schedule: Q01DX Z (oral), vehicle: other 111 % of control | endpoint: mean survival time, dose: 60.0 micrograms/kg/injection, schedule: Q01DX Z (ip), vehicle: carboxymethylcellulose (CMC) 100 % of control | endpoint: mean survival time, dose: 64.0 micrograms/kg/injection, schedule: Q01DX001 (ip), vehicle: clinical formulation 107 % of control | endpoint: mean survival time, dose: 64.0 micrograms/kg/injection, schedule: Q01DX001 (ip), vehicle: saline 104 % of control | endpoint: mean survival time, dose: 64.0 micrograms/kg/injection, schedule: Q01DX009 (ip), vehicle: clinical formulation 103 % of control | endpoint: mean survival time, dose: 70.0 micrograms/kg/injection, schedule: Q04DX002 (ip), vehicle: saline 109 % of control | endpoint: mean survival time, dose: 100.0 micrograms/kg/injection, schedule: Q01DX001 (ip), vehicle: saline 109 % of control | endpoint: mean survival time, dose: 100.0 micrograms/kg/injection, schedule: Q01DX009 (ip), vehicle: saline + alcohol 103 % of control | endpoint: mean survival time, dose: 100.0 micrograms/kg/injection, schedule: Q01DX Z (ip), vehicle: other 101 % of control | endpoint: mean survival time, dose: 100.0 micrograms/kg/injection, schedule: Q01DX Z (oral), vehicle: other 107 % of control | endpoint: mean survival time, dose: 128.0 micrograms/kg/injection, schedule: Q01DX001 (ip), vehicle: clinical formulation 109 % of control | endpoint: mean survival time, dose: 128.0 micrograms/kg/injection, schedule: Q01DX001 (ip), vehicle: saline 109 % of control | endpoint: mean survival time, dose: 140.0 micrograms/kg/injection, schedule: Q04DX002 (ip), vehicle: saline 93 % of control and 102 % of control | endpoint: mean survival time, dose: 280.0 micrograms/kg/injection, schedule: Q04DX002 (ip), vehicle: saline 106 % of control | endpoint: mean survival time, dose: 512.0 micrograms/kg/injection, schedule: Q04DX003 (ip), vehicle: water 100 % of control | endpoint: mean survival time, dose: 570.0 micrograms/kg/injection, schedule: Q04DX002 (ip), vehicle: saline 100 % of control | endpoint: median survival time, dose: 0.01 mg/kg/injection, schedule: Q01DX009 (ip), vehicle: water 107 % of control | endpoint: median survival time, dose: 0.02 mg/kg/injection, schedule: Q01DX009 (ip), vehicle: water 109 % of control (2×) and 110 % of control | endpoint: median survival time, dose: 0.03 mg/kg/injection, schedule: Q04DX003 (ip), vehicle: water 100 % of control | endpoint: median survival time, dose: 0.05 mg/kg/injection, schedule: Q01DX001 (ip), vehicle: saline 98 % of control | endpoint: median survival time, dose: 0.05 mg/kg/injection, schedule: Q01DX002 (ip), vehicle: saline 111 % of control | endpoint: median survival time, dose: 0.06 mg/kg/injection, schedule: Q01DX001 (ip), vehicle: water 100 % of control | endpoint: median survival time, dose: 0.06 mg/kg/injection, schedule: Q04DX003 (ip), vehicle: water 107 % of control | endpoint: median survival time, dose: 0.06 mg/kg/injection, schedule: Q08DX002 (ip), vehicle: water 94 % of control | endpoint: median survival time, dose: 0.08 mg/kg/injection, schedule: Q01DX009 (ip), vehicle: water 108 % of control | endpoint: median survival time, dose: 0.1 mg/kg/injection, schedule: Q01DX001 (ip), vehicle: saline 102 % of control | endpoint: median survival time, dose: 0.12 mg/kg/injection, schedule: Q01DX001 (ip), vehicle: water 111 % of control | endpoint: median survival time, dose: 0.12 mg/kg/injection, schedule: Q08DX002 (ip), vehicle: water 105 % of control | endpoint: median survival time, dose: 0.2 mg/kg/injection, schedule: Q01DX001 (ip), vehicle: saline 109 % of control | endpoint: median survival time, dose: 0.4 mg/kg/injection, schedule: Q01DX001 (ip), vehicle: saline 111 % of control | endpoint: median survival time, dose: 0.5 mg/kg/injection, schedule: Q04DX003 (ip), vehicle: water 96 % of control | endpoint: median survival time, dose: 4.0 micrograms/kg/injection, schedule: Q03HX016 (ip), vehicle: water 94 % of control | endpoint: median survival time, dose: 8.0 micrograms/kg/injection, schedule: Q03HX008 (ip), vehicle: water 100 % of control | endpoint: median survival time, dose: 8.0 micrograms/kg/injection, schedule: Q03HX016 (ip), vehicle: water 111 % of control | endpoint: median survival time, dose: 16.0 micrograms/kg/injection, schedule: Q03HX008 (ip), vehicle: water 111 % of control | endpoint: median survival time, dose: 16.0 micrograms/kg/injection, schedule: Q03HX016 (ip), vehicle: water 100 % of control | endpoint: median survival time, dose: 31.0 micrograms/kg/injection, schedule: Q03HX016 (ip), vehicle: water 100 % of control | endpoint: median survival time, dose: 200.0 micrograms/kg/injection, schedule: Q01DX009 (ip), vehicle: saline 93 % of control
